We go through two compounds from ChEMBL document CHEMBL1201862, “PubChem BioAssay data set” (2004).

SMILES strings stand for the structures. Calls of active or inactive are those of the source.

In assay [1] the target is T1, G-protein coupled receptor 55 (Homo sapiens, UniProt Q9Y2T6). Nature of the assay: selective activators of receptor GPR55 – imaging, U2OS cells, beta-arrestin-GFP redistribution, primary screen (AID 1961). The format is functional.
Assay [2] addresses T2, Cannabinoid receptor 2 (Homo sapiens, UniProt P34972). Put plainly: SAR analysis of antagonists of the Cannabinoid Receptor 2 using an Image-Based Assay - Set 2. [Related pubchem assays (depositor defined):AID1961, AID1965]. The format is functional.
The target of assay [3] is T2, Cannabinoid receptor 2. Nature of the assay: SAR analysis of agonists of the Cannabinoid Receptor 2 using an Image-Based Assay - Set 2. [Related pubchem assays (depositor defined):AID1961, AID1965]. The format is functional.
In assay [4] the target is T3, Tyrosine-protein phosphatase non-receptor type 7 (Homo sapiens, UniProt P35236).
T3 sequence (P35236 whole entry): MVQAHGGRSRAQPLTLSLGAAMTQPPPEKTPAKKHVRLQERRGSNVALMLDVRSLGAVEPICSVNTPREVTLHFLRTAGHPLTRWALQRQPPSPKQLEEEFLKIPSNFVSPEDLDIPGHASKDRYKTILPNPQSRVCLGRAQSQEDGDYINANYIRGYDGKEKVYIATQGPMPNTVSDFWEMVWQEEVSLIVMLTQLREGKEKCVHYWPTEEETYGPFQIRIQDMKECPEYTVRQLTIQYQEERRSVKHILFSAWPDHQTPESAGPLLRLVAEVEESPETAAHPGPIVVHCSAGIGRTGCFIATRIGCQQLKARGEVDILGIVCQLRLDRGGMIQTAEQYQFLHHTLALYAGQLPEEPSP
Nature of the assay: SAR analysis of chemical inhibitors of HePTP using a Fluorescent assay - Set 2. [Related pubchem assays (depositor defined):AID1059, AID1077, AID1661, AID2085, AID521]. The class given is functional.

The target of assay [5] is T1, G-protein coupled receptor 55. Nature of the assay: SAR analysis of selective Agonists of GPR55 using an Image-Based Assay. [Related pubchem assays (depositor defined):AID1961, AID1965]. The class given is functional.
The target in the next assay is Cannabinoid receptor 1 (Homo sapiens, UniProt P21554). Put plainly: SAR analysis of antagonists of the Cannabinoid Receptor 1 using an Image-Based Assay. [Related pubchem assays (depositor defined):AID1961, AID1965]. The format is functional.
Chain of Cannabinoid receptor 1 (P21554 whole entry): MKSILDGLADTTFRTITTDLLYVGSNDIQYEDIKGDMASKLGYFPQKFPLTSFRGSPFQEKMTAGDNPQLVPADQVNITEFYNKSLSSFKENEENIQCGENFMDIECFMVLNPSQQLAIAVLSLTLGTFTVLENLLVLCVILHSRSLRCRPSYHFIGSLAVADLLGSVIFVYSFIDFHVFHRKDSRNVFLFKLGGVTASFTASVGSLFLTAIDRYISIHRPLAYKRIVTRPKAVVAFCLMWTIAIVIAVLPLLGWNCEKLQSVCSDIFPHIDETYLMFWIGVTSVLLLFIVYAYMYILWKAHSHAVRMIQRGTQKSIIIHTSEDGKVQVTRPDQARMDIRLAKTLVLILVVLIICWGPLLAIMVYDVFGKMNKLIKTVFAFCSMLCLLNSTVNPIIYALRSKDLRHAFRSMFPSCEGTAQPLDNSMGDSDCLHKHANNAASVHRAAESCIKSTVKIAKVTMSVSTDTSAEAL
In assay [6] the target is Dual specificity protein phosphatase 3 (Homo sapiens, UniProt P51452). Nature of the assay: SAR VHR1 Fluorescent Assay for In Vitro dose response studies Set 2. [Related pubchem assays (depositor defined):AID1654, AID1661, AID1878]. The class given is functional.
Chain of Dual specificity protein phosphatase 3 (P51452 whole entry): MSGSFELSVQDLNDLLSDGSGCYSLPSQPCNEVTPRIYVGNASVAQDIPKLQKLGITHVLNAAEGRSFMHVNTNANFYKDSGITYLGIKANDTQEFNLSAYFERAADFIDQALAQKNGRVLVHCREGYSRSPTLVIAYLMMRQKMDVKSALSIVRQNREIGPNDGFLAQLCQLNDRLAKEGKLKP
Assay [7] deals with Sphingosine 1-phosphate receptor 1 (Homo sapiens, UniProt P21453). Nature of the assay: Fluorescence-based counterscreen assay for S1P4 agonists: Cell-based dose response high throughput screening assay to identify agonists of the Sphingosine 1-Phosphate Receptor 1 (S1P1). [Related pubchem assays (depositor defined):AID1509, AID1523, AID1801, AID463107, AID463118, AID463119, AID463122, AID463123, AID463129, AID463225, AID504400, AID504460]. The class given is functional.
Chain of Sphingosine 1-phosphate receptor 1 (P21453 whole entry): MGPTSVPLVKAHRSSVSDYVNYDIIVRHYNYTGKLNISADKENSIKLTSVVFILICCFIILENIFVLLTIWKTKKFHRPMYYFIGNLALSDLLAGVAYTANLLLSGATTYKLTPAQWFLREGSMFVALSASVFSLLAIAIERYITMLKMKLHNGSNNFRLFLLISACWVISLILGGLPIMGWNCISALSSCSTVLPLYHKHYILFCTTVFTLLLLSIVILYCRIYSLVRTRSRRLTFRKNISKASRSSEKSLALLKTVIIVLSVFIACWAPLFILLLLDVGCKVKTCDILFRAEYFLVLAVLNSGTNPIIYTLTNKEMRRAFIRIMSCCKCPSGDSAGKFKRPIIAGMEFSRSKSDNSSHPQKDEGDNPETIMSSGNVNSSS

Assay [8] in a line: HPDE-C7 pancreatic duct cell viability loss – fluorescence, HTS (AID 430). The class given is functional, cell-based. To be noted: Homo sapiens.
Assay [9] can be described thus: viability loss of HPDE-C7K cells – cell-based, fluorescence, HTS, primary screen (AID 431). The format is functional. Particulars: Homo sapiens.
Assay [10] concerns the target Sphingosine 1-phosphate receptor 4 (Homo sapiens, UniProt O95977). Put plainly: Fluorescence dose response cell-based high throughput screening assay for agonists of the Sphingosine 1-Phosphate Receptor 4 (S1P4). [Related pubchem assays: 1509 (Primary screen.), 1523 (Confirmation screen in triplicates.)]. The format is functional.
For assay [11], the target named is Sphingosine 1-phosphate receptor 2 (Homo sapiens, UniProt O95136). Put plainly: Dose Response Cell Based Assay for Agonists of the S1P2 Receptor. [Related pubchem assays: 729, 736, 843 ]. The class given is functional.
Chain of Sphingosine 1-phosphate receptor 2 (O95136 whole entry): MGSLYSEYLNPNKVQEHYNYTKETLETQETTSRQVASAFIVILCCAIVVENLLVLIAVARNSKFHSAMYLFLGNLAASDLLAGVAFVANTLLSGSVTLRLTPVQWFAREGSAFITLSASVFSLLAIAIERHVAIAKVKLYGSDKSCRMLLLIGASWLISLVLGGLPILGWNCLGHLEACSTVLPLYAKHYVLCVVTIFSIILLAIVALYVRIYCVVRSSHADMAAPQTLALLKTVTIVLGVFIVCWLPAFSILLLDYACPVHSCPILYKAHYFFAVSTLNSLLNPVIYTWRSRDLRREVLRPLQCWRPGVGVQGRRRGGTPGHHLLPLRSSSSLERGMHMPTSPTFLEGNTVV
Assay [12] deals with T4, Short transient receptor potential channel 4 (Mus musculus, UniProt Q9QUQ5).
T4 sequence (Q9QUQ5 whole entry): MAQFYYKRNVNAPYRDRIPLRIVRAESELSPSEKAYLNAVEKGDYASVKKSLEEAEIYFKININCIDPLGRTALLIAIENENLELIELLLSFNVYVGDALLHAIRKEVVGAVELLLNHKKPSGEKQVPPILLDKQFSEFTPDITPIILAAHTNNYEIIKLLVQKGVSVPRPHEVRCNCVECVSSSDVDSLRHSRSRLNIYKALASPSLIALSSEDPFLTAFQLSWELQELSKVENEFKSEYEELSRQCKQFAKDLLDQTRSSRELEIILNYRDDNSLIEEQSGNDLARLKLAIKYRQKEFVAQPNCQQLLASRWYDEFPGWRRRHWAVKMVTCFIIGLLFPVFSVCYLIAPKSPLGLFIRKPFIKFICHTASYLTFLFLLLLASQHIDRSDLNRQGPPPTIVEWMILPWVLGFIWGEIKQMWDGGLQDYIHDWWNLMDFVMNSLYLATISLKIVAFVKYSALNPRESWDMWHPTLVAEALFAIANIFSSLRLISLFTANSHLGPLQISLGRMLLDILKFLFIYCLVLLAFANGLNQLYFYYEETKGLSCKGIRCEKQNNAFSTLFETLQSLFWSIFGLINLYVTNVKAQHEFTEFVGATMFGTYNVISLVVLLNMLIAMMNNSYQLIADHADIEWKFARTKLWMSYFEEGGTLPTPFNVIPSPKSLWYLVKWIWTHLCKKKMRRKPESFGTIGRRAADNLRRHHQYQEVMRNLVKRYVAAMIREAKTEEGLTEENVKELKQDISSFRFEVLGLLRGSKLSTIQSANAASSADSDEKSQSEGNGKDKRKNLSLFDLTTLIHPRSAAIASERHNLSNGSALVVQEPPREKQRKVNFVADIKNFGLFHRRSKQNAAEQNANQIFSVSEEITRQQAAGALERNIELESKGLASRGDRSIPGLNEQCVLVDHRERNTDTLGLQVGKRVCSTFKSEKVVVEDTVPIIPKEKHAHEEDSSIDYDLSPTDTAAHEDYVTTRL
Put plainly: calcium entry via TRPC4 opening agents – cell-based, HEK293 TRPC4/mu-opioid, Fluo-4 calcium, dose response (AID 434937). The format is functional.

T2 sequence (P34972 whole entry): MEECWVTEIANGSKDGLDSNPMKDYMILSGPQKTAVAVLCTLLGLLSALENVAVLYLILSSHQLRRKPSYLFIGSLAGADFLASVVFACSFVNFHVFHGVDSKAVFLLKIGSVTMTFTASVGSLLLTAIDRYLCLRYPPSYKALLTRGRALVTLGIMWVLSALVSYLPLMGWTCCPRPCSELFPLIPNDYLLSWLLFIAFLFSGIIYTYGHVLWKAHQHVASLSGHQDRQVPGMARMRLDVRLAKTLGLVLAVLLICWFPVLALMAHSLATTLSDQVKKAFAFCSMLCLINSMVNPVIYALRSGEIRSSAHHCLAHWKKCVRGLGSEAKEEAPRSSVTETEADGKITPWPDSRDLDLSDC
T1 sequence (Q9Y2T6 whole entry): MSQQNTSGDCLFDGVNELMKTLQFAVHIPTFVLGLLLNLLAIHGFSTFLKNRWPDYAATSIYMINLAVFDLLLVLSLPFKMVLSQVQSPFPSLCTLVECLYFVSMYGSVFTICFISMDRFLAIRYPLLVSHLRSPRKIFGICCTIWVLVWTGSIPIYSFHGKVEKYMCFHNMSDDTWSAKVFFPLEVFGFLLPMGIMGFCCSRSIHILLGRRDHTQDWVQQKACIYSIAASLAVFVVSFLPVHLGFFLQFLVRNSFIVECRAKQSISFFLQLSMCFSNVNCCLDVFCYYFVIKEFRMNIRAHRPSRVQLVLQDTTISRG
Chain of Sphingosine 1-phosphate receptor 4 (O95977 whole entry): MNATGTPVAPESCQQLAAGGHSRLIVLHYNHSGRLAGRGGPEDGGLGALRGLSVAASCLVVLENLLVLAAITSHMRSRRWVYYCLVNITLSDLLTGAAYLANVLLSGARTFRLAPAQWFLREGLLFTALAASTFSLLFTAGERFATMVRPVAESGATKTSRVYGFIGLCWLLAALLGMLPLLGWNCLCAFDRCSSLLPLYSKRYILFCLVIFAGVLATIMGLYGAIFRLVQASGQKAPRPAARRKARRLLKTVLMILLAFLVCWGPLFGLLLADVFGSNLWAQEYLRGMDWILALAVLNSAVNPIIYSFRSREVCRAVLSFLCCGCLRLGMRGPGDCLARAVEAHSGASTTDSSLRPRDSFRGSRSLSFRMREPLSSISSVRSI

Turning to `C=CCN(CC=C)S(=O)(=O)c1ccc(NC(=S)NC(=O)c2ccc(-c3ccccc3)cc2)cc1`, the values for the EC50 (in assay [1]; on Cannabinoid receptor 2 [3]; in assay [5]) were < 0.5 µM (active), > 32 µM (inactive) and 0.2 µM (active), respectively. Further, the IC50 on Cannabinoid receptor 2 [2] was > 32 µM (inactive); in assay [4] it was > 100 µM (inactive); at Cannabinoid receptor 1, > 32 µM (inactive); in [6], > 100 µM (inactive).
In the case of `Clc1ccc2nc(N3CCNCC3)nc(-c3ccccc3)c2c1`, the EC50 in assay [7] is > 49.8 µM (inactive); in assay [8] it was 8.03 µM (active); in [9] it was 4.64 µM (active); in assay [10] it was > 49.8 µM (not active); in assay [11], 1.34 µM (active); in [12] it was 5.96 µM (active).
